Test results reported in ChEMBL document CHEMBL2074400, “Transporter-mediated renal handling of nafamostat mesilate” (J Pharm Sci, 2004).

Target: ATP-dependent translocase ABCB1 (Homo sapiens, UniProt P08183)
Experiment: TP_TRANSPORTER: transepithelial transport in LLC-GA5-COL150 cells
Type: functional, cell-based
Conditions: pig

ATP-dependent translocase ABCB1, sequence (P08183 whole entry): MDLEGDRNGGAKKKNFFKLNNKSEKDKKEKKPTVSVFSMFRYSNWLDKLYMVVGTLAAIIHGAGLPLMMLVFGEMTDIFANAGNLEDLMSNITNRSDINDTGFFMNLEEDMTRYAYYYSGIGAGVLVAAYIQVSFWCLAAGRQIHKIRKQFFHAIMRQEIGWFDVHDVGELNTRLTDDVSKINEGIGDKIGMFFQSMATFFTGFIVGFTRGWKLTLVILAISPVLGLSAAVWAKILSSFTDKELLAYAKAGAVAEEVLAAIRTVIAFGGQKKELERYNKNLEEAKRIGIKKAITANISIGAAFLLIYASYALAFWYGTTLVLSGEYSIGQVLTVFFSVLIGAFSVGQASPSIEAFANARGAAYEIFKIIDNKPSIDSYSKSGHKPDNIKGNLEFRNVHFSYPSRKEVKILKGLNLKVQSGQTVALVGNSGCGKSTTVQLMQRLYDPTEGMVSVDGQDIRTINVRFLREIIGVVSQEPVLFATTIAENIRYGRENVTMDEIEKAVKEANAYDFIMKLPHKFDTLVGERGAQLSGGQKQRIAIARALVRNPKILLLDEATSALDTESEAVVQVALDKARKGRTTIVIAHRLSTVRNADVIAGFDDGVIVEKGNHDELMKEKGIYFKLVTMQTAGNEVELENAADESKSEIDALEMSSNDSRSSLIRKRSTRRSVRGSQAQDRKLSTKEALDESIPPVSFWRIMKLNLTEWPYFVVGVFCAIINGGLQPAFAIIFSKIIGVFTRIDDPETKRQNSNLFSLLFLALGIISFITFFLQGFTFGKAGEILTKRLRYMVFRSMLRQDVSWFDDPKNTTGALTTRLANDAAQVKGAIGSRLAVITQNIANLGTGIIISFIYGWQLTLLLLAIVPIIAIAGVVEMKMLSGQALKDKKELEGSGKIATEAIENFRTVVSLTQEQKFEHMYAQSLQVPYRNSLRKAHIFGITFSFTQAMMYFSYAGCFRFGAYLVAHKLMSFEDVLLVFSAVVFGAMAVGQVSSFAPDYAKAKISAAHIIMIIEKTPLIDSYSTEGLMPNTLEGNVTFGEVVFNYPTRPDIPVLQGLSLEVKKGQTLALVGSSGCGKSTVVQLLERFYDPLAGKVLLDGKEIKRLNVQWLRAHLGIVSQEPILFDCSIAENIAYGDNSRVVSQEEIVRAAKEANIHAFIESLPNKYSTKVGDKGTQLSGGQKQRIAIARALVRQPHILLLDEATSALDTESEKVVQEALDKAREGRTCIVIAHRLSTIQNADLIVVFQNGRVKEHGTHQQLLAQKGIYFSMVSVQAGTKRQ

- Activity: is not a substrate [-]
SMILES: CS(=O)(=O)O.N=C(N)Nc1ccc(C(=O)Oc2ccc3cc(C(=N)N)ccc3c2)cc1
